These results are taken from article PMC4692507, “Purification and Characterization of Suicin 65, a Novel Class I Type B Lantibiotic Produced by Streptococcus suis” (PLoS ONE, 2015).

Converted amounts (≈) assume the structure as drawn.

One assay deals with S. suis P1/7. The assay is described as follows: Resistance to antibiotics (MIC-based class). The format is cell-based, Streptococcus suis. As to conditions: strain P1/7; resistant if MIC ≥ 400 μg/ml. The source says:
(§1) Table 1 Strains of S. suis used in this study, their characteristics and susceptibility to S. suis 65. | column: Resistance to antibiotics ^1 / Erythromycin; Resistance to antibiotics ^1 / Tetracycline

Another assay deals with S. suis LPH4. Description: Resistance to antibiotics (MIC-based class). The format is cell-based, Streptococcus suis. As to conditions: strain LPH4; resistant if MIC ≥ 400 μg/ml.
Text: as §1

The subject of the next assay is S. suis 31533. Description: Resistance to antibiotics (MIC-based class). The assay is classed as cell-based, Streptococcus suis. The note with it: strain 31533; resistant if MIC ≥ 400 μg/ml.
Text: as §1

The next assay deals with S. suis MNCM06. The assay is described as follows: Resistance to antibiotics (MIC-based class). The format is cell-based, Streptococcus suis. As to conditions: strain MNCM06; resistant if MIC ≥ 400 μg/ml.
Text: as §1

The subject of a further assay is S. suis 1054471. The assay is described as follows: Resistance to antibiotics (MIC-based class). The assay is classed as cell-based, Streptococcus suis. As to conditions: strain 1054471; resistant if MIC ≥ 400 μg/ml.
Text: as §1

Another assay concerns S. suis 1088563. Description: Resistance to antibiotics (MIC-based class). The format is cell-based, Streptococcus suis. As to conditions: strain 1088563; resistant if MIC ≥ 400 μg/ml.
Text: as §1

For another assay, the system named is S. suis MNCM01. Description: Resistance to antibiotics (MIC-based class). The assay is classed as cell-based, Streptococcus suis. As to conditions: strain MNCM01; resistant if MIC ≥ 400 μg/ml.
Text: as §1

For a further assay, the system named is S. suis 65. The assay is described as follows: Antibiotic susceptibility of S. suis 65 (broth microdilution MIC). As to conditions: Streptococcus suis; S. suis 65, THB, 96-well plates, 24 h at 37°C, growth recorded visually; three independent experiments. The assay is classed as cell-based. The method, then:
The susceptibility of S. suis 65 to antibiotics (amoxicillin, ceftiofur, and penicillin G) was determined as follows. Briefly, a 24-h bacterial culture in THB was diluted in fresh broth medium to obtain an optical density at 660 nm (OD660) of 0.2. Equal volumes (100 μl) of bacteria and serial dilutions of antibiotics in THB were mixed in the wells of 96-well plates. Wells with no bacteria or no antibiotics were used as controls. Following a 24-h incubation at 37°C, bacterial growth was recorded visually. Minimal inhibitory concentration (MIC) values (μg/ml) were expressed as the lowest concentration at which no growth occurred. The MIC values were determined in three independent experiments.

On to `CC[C@H]1OC(=O)[C@H](C)[C@@H](O[C@H]2C[C@@](C)(OC)[C@@H](O)[C@H](C)O2)[C@H](C)[C@@H](O[C@@H]2O[C@H](C)C[C@H](N(C)C)[C@H]2O)[C@](C)(O)C[C@@H](C)C(=O)[C@H](C)[C@@H](O)[C@]1(C)O` [Erythromycin], for which the Resistance to antibiotics entry in the assay on S. suis P1/7 is “Sensitive (A strain was considered resistant if the MIC was ≥ 400 μg/ml)”; with S. suis LPH4, “Resistant (A strain was considered resistant if the MIC was ≥ 400 μg/ml)”; with S. suis 31533, “Sensitive (A strain was considered resistant if the MIC was ≥ 400 μg/ml)”; in the assay with S. suis MNCM06, “Resistant (A strain was considered resistant if the MIC was ≥ 400 μg/ml)”; with S. suis 1054471, “Sensitive (A strain was considered resistant if the MIC was ≥ 400 μg/ml)”; with S. suis 1088563, “Resistant (A strain was considered resistant if the MIC was ≥ 400 μg/ml)”. The Resistance to antibiotics result in the assay with S. suis MNCM01 is recorded as “Resistant (A strain was considered resistant if the MIC was ≥ 400 μg/ml)”.

In the case of `CN(C)[C@@H]1C(O)=C(C(N)=O)C(=O)[C@@]2(O)C(O)=C3C(=O)c4c(O)cccc4[C@@](C)(O)[C@H]3C[C@@H]12` [Tetracycline], the Resistance to antibiotics result is “Sensitive (A strain was considered resistant if the MIC was ≥ 400 μg/ml)” with S. suis P1/7; “Resistant (A strain was considered resistant if the MIC was ≥ 400 μg/ml)” in the assay with S. suis LPH4; “Sensitive (A strain was considered resistant if the MIC was ≥ 400 μg/ml)” with S. suis 31533; “Resistant (A strain was considered resistant if the MIC was ≥ 400 μg/ml)” in the assay on S. suis MNCM06; “Resistant (A strain was considered resistant if the MIC was ≥ 400 μg/ml)” in the assay on S. suis 1054471; “Resistant (A strain was considered resistant if the MIC was ≥ 400 μg/ml)” in the assay on S. suis 1088563. For the same compound, in the assay with S. suis MNCM01, the Resistance to antibiotics result is on record as “Resistant (A strain was considered resistant if the MIC was ≥ 400 μg/ml)”.

For the compound `CC1(C)S[C@@H]2[C@H](NC(=O)[C@H](N)c3ccc(O)cc3)C(=O)N2[C@H]1C(=O)O` [amoxicillin], in the assay on S. suis 65, the MIC was 4.9 ng/mL (≈ 0.0134 µM).

As to `CO/N=C(\C(=O)N[C@@H]1C(=O)N2C(C(=O)O)=C(CSC(=O)c3ccco3)CS[C@H]12)c1csc(N)n1` [ceftiofur], the minimal inhibitory concentration (MIC) against S. suis 65 stood at 9.8 ng/mL (≈ 0.0187 µM). Compared with the last compound, the MIC is about 2-fold higher.

Compound `CC1(C)S[C@@H]2[C@H](NC(=O)Cc3ccccc3)C(=O)N2[C@H]1C(=O)O` [penicillin G] registered a minimum inhibitory concentration (MIC) with S. suis 65 of 9.8 ng/mL (≈ 0.0293 µM).
